This assay has as its target T1, h-11βHSD1 (Homo sapiens, UniProt P28845).
T1 construct: made in house
The assay is described as follows: 11βHSD1 enzyme assay (scintillation proximity assay). The format is biochemical. As to conditions: extract of yeast transformed with h-11βHSD1; 120 nM 3H-cortisone, 4 mM β-NADPH; 60 min at 30° C. As for the experimental part:
Pharmacological Methods 11βHSD1 enzyme assay Materials
^3H-cortisone and anti-rabbit Ig coated scintillation proximity assay (SPA) beads were purchased from Amersham Pharmacia Biotech, β-NADPH was from Sigma and rabbit anticortisol antibodies were from Fitzgerald. An extract of yeast transformed with h-11βHSD1 (Hult et al., FEBS Lett, 441, 25 (1998)) was used as the source of enzyme. The test compounds were dissolved in DMSO (10 mM). All dilutions were performed in a buffer containing 50 mM TRIS-HCl (Sigma Chemical Co), 4 mM EDTA (Sigma Chemical Co), 0.1% BSA (Sigma Chemical Co), 0.01% Tween-20 (Sigma Chemical Co) and 0.005% bacitracin (Novo Nordisk A/S), pH=7.4. Optiplate 96 wells plates were supplied by Packard. The amount of ^3H-cortisol bound to the SPA beads was measured on TopCount NXT, Packard.
h-11βHSD1, 120 nM ^3H-cortisone, 4 mM β-NADPH, antibody (1:200), serial dilutions of test compound and SPA particles (2 mg/well) were added to the wells. The reaction was initiated by mixing the different components and was allowed to proceed under shaking for 60 min at 30° C. […] Data was analysed using GraphPad Prism software.
On the technique in general: Scintillation proximity formats need no separation of bound from free tracer.

Structures are written as SMILES.

T1 sequence (P28845 whole entry): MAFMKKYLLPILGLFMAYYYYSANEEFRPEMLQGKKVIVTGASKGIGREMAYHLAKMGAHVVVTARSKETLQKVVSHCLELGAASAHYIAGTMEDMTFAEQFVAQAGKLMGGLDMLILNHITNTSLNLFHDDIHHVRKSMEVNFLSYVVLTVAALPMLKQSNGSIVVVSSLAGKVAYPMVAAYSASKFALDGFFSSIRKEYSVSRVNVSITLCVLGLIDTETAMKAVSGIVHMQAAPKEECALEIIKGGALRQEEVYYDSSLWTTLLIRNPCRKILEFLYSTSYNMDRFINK

As a reminder, the IC50 is the point on the concentration scale where inhibition reaches its midpoint. Lower therefore signals greater potency. Molecule `CCn1c(SCC(=O)N2CCCc3ccccc32)nnc1-c1ccccc1Br` [Comp A, 2-[5-(2-Bromo-phenyl)-4-ethyl-4H-[1,2,4]triazol-3-ylsulfanyl]-1-(3,4-dihydro-2H-quinolin-1-yl)-ethanone] gave an IC50 of 160 nM.

`Cn1c(SCC(=O)c2ccccc2)nnc1C1CCCCC1` [Comp B, 2-(5-Cyclohexyl-4-methyl-4H-[1,2,4]triazol-3-ylsulfanyl)-1-phenyl-ethanone] gave a half-maximal inhibitory concentration (IC50) of 190 nM.

The values are drawn from patent US20060100235A1, “Pharmaceutical use of substituted 1,2,4-triazoles” (Novo Nordisk A/S, priority 2003, published 2006).
